Columns and labels:
[1] = Chitosan-controlled release of zinc through dialysis tubing, dialysate zinc measured by ICP-OES; assay type: physicochemical
Protocol: (§1) The chitosan-controlled release of zinc was investigated. 0.1% solutions of chitosan were prepared. Zinc acetate was added to each of these solutions to provide a zinc ion concentration of 100 ppm or 200 ppm. The pH of the solutions was adjusted to 2, 5 or 7. Each solution was left at room temperature for 72 hours while gently mixing to allow for complete chitosan dissolution. Solutions containing zinc alone acted as controls for the experiment.
(§2) Each solution was subsequently transferred to dialysis tubing and placed in a jar containing deionized water. Stirring was carried out continuously throughout the duration of dialysis. Evaporative loss was minimized by placing a sealing wrap over the jar. A sample of the dialysate was removed at regular intervals and the zinc ion concentration was measured by inductively coupled plasma optical emission spectrometry (ICP-OES).

[2] = Amount of zinc bound to chitosan after 1 hour of dialysis; assay type: physicochemical
Protocol: as §1, §2
The amount of zinc bound to chitosan after 1 hour of dialysis at pH 2, 5 and 7 was also determined After 1 hour of dialysis, the amount of zinc that had been released through the dialysis tubing, in the presence and absence of chitosan, was measured as described above. The amount of zinc released in the presence of chitosan was subtracted from the amount of zinc released in the absence of chitosan to determine the amount of zinc bound to chitosan.

CC(=O)[O-].CC(=O)[O-].[Zn+2] [Zinc, Zinc acetate]
average rate of zinc release per hour ([1]; 100 ppm Zn acetate, pH 2): 0.54 mg/h
average rate of zinc release per hour ([1]; 100 ppm Zn acetate, pH 5): 1.38 mg/h
average rate of zinc release per hour ([1]; 100 ppm Zn acetate, pH 7): 0.85 mg/h
Amount of Zn++ released ([1]; 100 ppm zinc ion, pH 2, 0.00 hrs): 0 mg
Amount of Zn++ released ([1]; 100 ppm zinc ion, pH 2, 0.33 hrs): 0.25 ± 0.00 mg
Amount of Zn++ released ([1]; 100 ppm zinc ion, pH 2, 0.67 hrs): 0.42 ± 0.01 mg
Amount of Zn++ released ([1]; 100 ppm zinc ion, pH 2, 1.00 hrs): 0.52 ± 0.01 mg
Amount of Zn++ released ([1]; 100 ppm zinc ion, pH 2, 1.33 hrs): 0.75 ± 0.01 mg
Amount of Zn++ released ([1]; 100 ppm zinc ion, pH 2, 1.67 hrs): 0.90 ± 0.02 mg
Amount of Zn++ released ([1]; 100 ppm zinc ion, pH 2, 2.00 hrs): 1.01 ± 0.02 mg
Amount of Zn++ released ([1]; 100 ppm zinc ion, pH 2, 2.50 hrs): 1.40 ± 0.01 mg
Amount of Zn++ released ([1]; 100 ppm zinc ion, pH 2, 3.00 hrs): 1.66 ± 0.02 mg
Amount of Zn++ released ([1]; 100 ppm zinc ion, pH 5, 0.00 hrs): 0 mg
Amount of Zn++ released ([1]; 100 ppm zinc ion, pH 5, 0.33 hrs): 0.57 ± 0.01 mg
Amount of Zn++ released ([1]; 100 ppm zinc ion, pH 5, 0.67 hrs): 1.15 ± 0.02 mg
Amount of Zn++ released ([1]; 100 ppm zinc ion, pH 5, 1.00 hrs): 1.68 ± 0.02 mg
Amount of Zn++ released ([1]; 100 ppm zinc ion, pH 5, 1.33 hrs): 2.36 ± 0.07 mg
Amount of Zn++ released ([1]; 100 ppm zinc ion, pH 5, 1.67 hrs): 2.86 ± 0.07 mg
Amount of Zn++ released ([1]; 100 ppm zinc ion, pH 5, 2.00 hrs): 3.14 ± 0.01 mg
Amount of Zn++ released ([1]; 100 ppm zinc ion, pH 5, 2.50 hrs): 3.69 ± 0.05 mg
Amount of Zn++ released ([1]; 100 ppm zinc ion, pH 5, 3.00 hrs): 4.00 ± 0.00 mg
Amount of Zn++ released ([1]; 100 ppm zinc ion, pH 7, 0.00 hrs): 0 mg
Amount of Zn++ released ([1]; 100 ppm zinc ion, pH 7, 0.33 hrs): 0.30 ± 0.00 mg
Amount of Zn++ released ([1]; 100 ppm zinc ion, pH 7, 0.67 hrs): 0.71 ± 0.15 mg
Amount of Zn++ released ([1]; 100 ppm zinc ion, pH 7, 1.00 hrs): 0.82 ± 0.00 mg
Amount of Zn++ released ([1]; 100 ppm zinc ion, pH 7, 1.33 hrs): 1.11 ± 0.00 mg
Amount of Zn++ released ([1]; 100 ppm zinc ion, pH 7, 1.67 hrs): 1.40 ± 0.01 mg
Amount of Zn++ released ([1]; 100 ppm zinc ion, pH 7, 2.00 hrs): 1.78 ± 0.25 mg
average rate of zinc release per hour ([1]; 200 ppm Zn acetate, pH 2): 1.58 mg/h
average rate of zinc release per hour ([1]; 200 ppm Zn acetate, pH 5): 2.07 mg/h
average rate of zinc release per hour ([1]; 200 ppm Zn acetate, pH 7): 1.47 mg/h
Amount of Zn++ released ([1]; 200 ppm zinc ion, pH 2, 0.00 hrs): 0 mg
Amount of Zn++ released ([1]; 200 ppm zinc ion, pH 2, 0.33 hrs): 0.52 ± 0.00 mg
Amount of Zn++ released ([1]; 200 ppm zinc ion, pH 2, 0.67 hrs): 1.07 ± 0.00 mg
Amount of Zn++ released ([1]; 200 ppm zinc ion, pH 2, 1.00 hrs): 1.77 ± 0.07 mg
Amount of Zn++ released ([1]; 200 ppm zinc ion, pH 2, 1.33 hrs): 2.36 ± 0.01 mg
Amount of Zn++ released ([1]; 200 ppm zinc ion, pH 2, 1.67 hrs): 2.90 ± 0.01 mg
Amount of Zn++ released ([1]; 200 ppm zinc ion, pH 2, 2.00 hrs): 3.40 ± 0.05 mg
Amount of Zn++ released ([1]; 200 ppm zinc ion, pH 2, 2.50 hrs): 4.09 ± 0.01 mg
Amount of Zn++ released ([1]; 200 ppm zinc ion, pH 2, 3.00 hrs): 4.59 ± 0.00 mg
Amount of Zn++ released ([1]; 200 ppm zinc ion, pH 5, 0.00 hrs): 0 mg
Amount of Zn++ released ([1]; 200 ppm zinc ion, pH 5, 0.33 hrs): 0.99 ± 0.00 mg
Amount of Zn++ released ([1]; 200 ppm zinc ion, pH 5, 0.67 hrs): 1.91 ± 0.02 mg
Amount of Zn++ released ([1]; 200 ppm zinc ion, pH 5, 1.00 hrs): 2.73 ± 0.00 mg
Amount of Zn++ released ([1]; 200 ppm zinc ion, pH 5, 1.33 hrs): 3.61 ± 0.00 mg
Amount of Zn++ released ([1]; 200 ppm zinc ion, pH 5, 1.67 hrs): 4.25 ± 0.01 mg
Amount of Zn++ released ([1]; 200 ppm zinc ion, pH 5, 2.00 hrs): 4.85 ± 0.02 mg
Amount of Zn++ released ([1]; 200 ppm zinc ion, pH 5, 2.50 hrs): 5.59 ± 0.01 mg
Amount of Zn++ released ([1]; 200 ppm zinc ion, pH 5, 3.00 hrs): 6.13 ± 0.03 mg
Amount of Zn++ released ([1]; 200 ppm zinc ion, pH 7, 0.00 hrs): 0 mg
Amount of Zn++ released ([1]; 200 ppm zinc ion, pH 7, 0.33 hrs): 0.630 ± 0.00 mg
Amount of Zn++ released ([1]; 200 ppm zinc ion, pH 7, 0.67 hrs): 1.21 ± 0.01 mg
Amount of Zn++ released ([1]; 200 ppm zinc ion, pH 7, 1.00 hrs): 1.76 ± 0.01 mg
Amount of Zn++ released ([1]; 200 ppm zinc ion, pH 7, 1.33 hrs): 2.36 ± 0.02 mg
Amount of Zn++ released ([1]; 200 ppm zinc ion, pH 7, 1.67 hrs): 2.88 ± 0.02 mg
Amount of Zn++ released ([1]; 200 ppm zinc ion, pH 7, 2.00 hrs): 3.25 ± 0.04 mg
Zn++ released through the dialysis tubing ([2]; 100 ppm pH 2, after 1 hour of dialysis): 0.57 mg
Zn++ released through the dialysis tubing ([2]; 100 ppm pH 5, after 1 hour of dialysis): 1.62 mg
Zn++ released through the dialysis tubing ([2]; 100 ppm pH 7, after 1 hour of dialysis): 0.87 mg
Zn++ released through the dialysis tubing ([2]; 200 ppm pH 2, after 1 hour of dialysis): 1.68 mg
Zn++ released through the dialysis tubing ([2]; 200 ppm pH 5, after 1 hour of dialysis): 2.54 mg
Zn++ released through the dialysis tubing ([2]; 200 ppm pH 7, after 1 hour of dialysis): 1.68 mg

From patent US20150328250A1, “Animal Food Composition and Method” (HILL'S PET NUTRITION, INC., priority 2012, published 2015)
